Test results from patent publication EP0808325B1, “[…] […] SERIES FOR […] GABA RECEPTOR” (priority 1994, dated 1996).
pIC50: −log10 of the molar value.

Legend:
[1] = test system: metrazol induced convulsions; assay: animal or person; format: in vivo, mice; details: for % Protected: 10 mg/kg
Method: Experiments were also performed to determine the physiological relevance of neuroactive steroid and GABA receptor interactions by assessing the ability of the compounds of and used in the invention to prevent metrazol induced convulsions in mice. […] The time to onset of myoclonus (presence of forelimb clonic activity) induced by metrazol was determined by observing each mouse for a period of 30 minutes. […]
The anticonvulsant tests are similar to that described above. […] The number of animals with tonic and/or clonic convulsions was recorded. In the maximal electroshock test, 50 mA of current at 60 Hz was delivered through corneal electrodes for 200 msec to induce tonic seizure. The ability of compounds to abolish the tonic component was defined as the endpoint. General CNS depression potential was determined by a rotorod test 10 minutes after the injection of compounds where the number of mice staying on a rotating (6 rpm) rod for 1 minute in one of the three trials was determined. […]

GR complex = assay: modulation of [35S]TBPS binding in rat cerebral cortex P2 homogenate; set-up: species or system Sprague-Dawley rats; IMAX: unit not given here; details: for pIC50: concentration of compounds to inhibit 50% of control [35S]TBPS binding, 2 nM [35S]TBPS, 25°C, 90 minutes, no unit printed; for IMAX: maximum inhibition of [35S]TBPS binding, I* = Inactive
Method: We performed several experiments to determine the nature of the modulation of [^35S]TBPS as affected by the compounds of the invention.
These procedures were performed as follows:
Brains from male Sprague-Dawley rats were removed immediately following sacrifice and the cerebral cortices dissected over ice. […] Briefly, the cortices were gently homogenized in 0.32 M sucrose followed by centrifugation at 1000 x g for 10 minutes. The supernatant was collected and centrifuged at 9000 x g for 20 minutes. The resultant P2 pellet was suspended as a 10% (original wet weight/volume) suspension in 50 mM Na/K phosphate buffer (pH 7.4) 200 mM NaCI to form the homogenate.
One hundred microliter […] aliquots of the P2 homogenate (0.5 milligrams (mg) protein) were incubated with 2 nanomolar (nM) [^35S]TBPS (70-110 curies/millimole;, New England Nuclear, Boston, MA) in the presence or absence of the naturally occurring steroids or their synthetic derivatives to be tested. The tested compounds were dissolved in dimethylsulfoxide (Baker Chem. Co., Phillipsbury, NJ) and added to the incubation mixture in 5 µL aliquots. The incubation mixture was brought to a final volume of 1 mL with buffer. Nonspecific binding was defined as binding in the presence of […]. The effect and specificity of GABA (Sigma Chem. Co., St. Louis, MO) was evaluated by performing all assays in the presence of GABA plus (+)bicuculline (Sigma Chem. Co.). Incubations maintained at 25°C for 90 minutes (steady state conditions) were terminated by rapid filtration through glass fiber filters (No. 32, Schleicher and Schuell, Keene, NH). Filter-bound radioactivity was quantitated by liquid scintillation spectrophotometry.
Various compounds were screened to determine their potential as modulators of [^35S]TBPS binding in vitro. These assays were performed in accordance with the above discussed procedures. […] It is an indication of a compound's in vitro potency. Maximum inhibition is an indication of a compound's in vitro efficacy.

[2] = IP, 50% hpbcd, 10 minutes prior to metrazol (85 mg/kg)
[3] = 60 mg/kg, 1 hr, IP, anti-metrazol

Structure (SMILES) | pIC50 (GR complex) | IMAX (GR complex) | also measured
CC(C)(O)[C@H]1CC[C@H]2[C@@H]3CC[C@@H]4C[C@](C)(O)CC[C@]4(C)[C@H]3CC[C@]12C [3α,20-Dihydroxy-3β,20-dimethyl-5β-pregnane] | – | – | % Protected ([1]; IP, micro soln.): 22.2%
C#CC1(O)CCC2(C)C(CCC3C2CCC2(C)C(C(C)O)CCC32)C1 (stereo not drawn) [3α,20α-dihydroxy-3β-ethynyl-5α-pregnane, 3β-Ethynyl-3α,20α-dihydroxy-5α-pregnane] | 6.69 | 56 | –
C#CC1(O)CCC2(C)C(CCC3C2CCC2(C)C(C(C)O)CCC32)C1 (stereo not drawn) [3α,20α-dihydroxy-3β-ethynyl-5β-pregnane, 3β-Ethynyl-3α,20α-dihydroxy-5β-pregnane] | 6.25 | 98 | –
C#C[C@@]1(O)CC[C@@]2(C)[C@@H](CC[C@@H]3[C@@H]2CC[C@]2(C)[C@@H]([C@@H](C)O)CC[C@@H]32)C1 [3α,20β-dihydroxy-3β-ethynyl-5α-pregnane, 3β-ethynyl-3α,20β-dihydroxy- 5α-pregnane] | 6.11 | 107 | % Protected [1, 2]: 37.5%
C#C[C@@]1(O)CC[C@@]2(C)[C@H](CC[C@@H]3[C@@H]2CC[C@]2(C)[C@@H]([C@@H](C)O)CC[C@@H]32)C1 [3α,20β-dihydroxy-3β-ethynyl-5β-pregnane, 3β-Ethynyl-3α,20β-dihydroxy-5β-pregnane] | 6.16 | 77 | % Protected [1, 2]: 25%
CC(O)C1CCC2C3CCC4CC(C)(O)CCC4(C)C3CCC12C (stereo not drawn) [3α,20β-dihydroxy-3β-methyl-5α-pregnane] | 6.03 | 99 | –
CC(O)C1CCC2C3CCC4CC(C)(O)CCC4(C)C3CCC12C (stereo not drawn) [3α,20β-dihydroxy-3β-methyl-5β-pregnane] | 6.34 | 105 | –
C[C@]12CC[C@](O)(C(F)(F)F)C[C@H]1CC[C@@H]1[C@@H]2CC[C@]2(C)[C@@H](C(=O)COC(=O)CCC(=O)O)CC[C@@H]12 [3α,21-Dihydroxy-3β-trifluoromethyl-5β-pregnan-20-one, 21-hemisuccinate] | 6.19 | 101 | % Protected ([1]; IP, water): 50%
CC(=O)OCC(=O)[C@H]1CC[C@H]2[C@@H]3CC[C@H]4C[C@](C)(O)CC[C@]4(C)[C@H]3CC[C@]12C [3α,21-Hydroxy-3β-methyl-5α-pregnan-20-one, 21-acetate] | 6.55 | 93 | % Protected ([1]; IP, micro soln.): 10%
C=C[C@@]1(O)CC[C@@]2(C)[C@@H](CC[C@@H]3[C@@H]2CC[C@]2(C)[C@@H](C(=O)COC(=O)CCC(=O)O)CC[C@@H]32)C1 [3α,21-dihydroxy-3β-ethenyl-5α-pregnan-20-one 21-hemisuccinate] | 6.42 | 89 | –
C=C[C@@]1(O)CC[C@@]2(C)[C@@H](CC[C@@H]3[C@@H]2CC[C@]2(C)[C@@H](C(=O)CO)CC[C@@H]32)C1 [3α,21-dihydroxy-3β-ethenyl-5α-pregnan-20-one] | 6.54 | 101 | –
COC(=O)CCC(=O)OCC(=O)C1CCC2C3CCC4CC(O)(C(F)(F)F)CCC4(C)C3CCC12C (stereo not drawn) [3α,21-dihydroxy-3β-trifluoromethyl-5β-pregnan-20-one methyl 21-succinate] | 6.32 | 86 | –
C[C@]12CC[C@@H](O)C[C@@H]1CC[C@@H]1[C@@H]2CC[C@]2(C)[C@@H](C(=O)COC(=O)CCC(=O)O)CC[C@@H]12 [3α,21-dihydroxy-5α-pregnan-20-one 21-hemisuccinate] | 6.93 | 91 | –
CCC(=O)[C@H]1CC[C@H]2[C@@H]3CC[C@H]4C[C@](C)(O)CC[C@]4(C)[C@H]3CC[C@]12C [3α-hydroxy-3β,21-dimethyl-5α-pregnan-20-one] | 7.05 | 85 | –
CC(=O)[C@H]1CC[C@H]2[C@@H]3CC[C@H]4C[C@](C)(O)CC[C@]4(C)[C@H]3C=C[C@]12C [3α-hydroxy-3β-methyl-5α-pregn-11-en-20-one] | 6.62 | 76 | –
CC(=O)[C@H]1CC[C@H]2[C@@H]3CC[C@H]4C[C@](C)(O)CC[C@]4(C)[C@H]3C(=O)C[C@]12C [3α-hydroxy-3β-methyl-5α-pregnane-11,20-dione] | 6.02 | 100 | –
CC(=O)[C@H]1CC[C@H]2[C@@H]3CC[C@@H]4C[C@](C)(O)CC[C@@H]4[C@H]3CC[C@]12C [3α-hydroxy-3β-methyl-5β-19-nor-pregnan-20-one] | 7.59 | 94 | –
CC(=O)C1=CC[C@H]2[C@@H]3CC[C@@H]4C[C@](C)(O)CC[C@]4(C)[C@H]3CC[C@]12C [3α-hydroxy-3β-methyl-5β-pregn-16-en-20-one] | 6.02 | 100 | –

Structure (SMILES) | pIC50 (GR complex) | IMAX (GR complex) | also measured
CCC(=O)[C@H]1CC[C@H]2[C@@H]3CC[C@@H]4C[C@H](O)CC[C@]4(C)[C@H]3CC[C@]12C [3α-hydroxy-21-methyl-5β-pregnan-20-one] | 7.11 | 100 | –
CCCCC#C[C@@]1(O)CC[C@@]2(C)[C@H](CC[C@@H]3[C@@H]2CC[C@]2(C)[C@@H](C(C)=O)CC[C@@H]32)C1 [3β-(1-hexynyl)-3α-hydroxy-5β-pregnan-20-one] | – | – | % Protected [1, 2]: 37.5%
CC(=O)C1CCC2C3CCC4CC(O)(C#CCCCCl)CCC4(C)C3CCC12C (stereo not drawn) [3β-(5'-chloropentyn-1'-yl)-3α-hydroxy-5β-pregnan-20-one] | 7.36 | 98 | –
CC(=O)C1CCC2C3CCC4CC(OC(=O)c5ccc(Cl)cc5)CCC4(C)C3CCC12C (stereo not shown) [4-Chlorophenyl] | – | – | % Protection [1, 3]: 50%
COc1ccc(C(=O)OC2CCC3(C)C(CCC4C3CCC3(C)C(C(C)=O)CCC43)C2)cc1 (stereo not shown) [4-Methoxyphenyl] | – | – | % Protection [1, 3]: 17%
CC12CCC(O)(C(F)(F)F)CC1CCC1C2CCC2(C)C(C(=O)CBr)CCC12 (stereo not drawn) [21-bromo-3α-hydroxy-3β-trifluoromethyl-5β-pregnan-20-one] | 5.82 | 102 | –
CCCCC(=O)OC1CCC2(C)C(CCC3C2CCC2(C)C(C(C)=O)CCC32)C1 (stereo not shown) [Butyl] | – | – | % Protection ([1]; mouse, in vivo): 33%
CCC(=O)OC1CCC2(C)C(CCC3C2CCC2(C)C(C(C)=O)CCC32)C1 (stereo not shown) [Ethyl] | – | – | % Protection [1, 3]: 75%
CC(=O)C1CCC2C3CCC4CC(OC(=O)C(C)C)CCC4(C)C3CCC12C (stereo not shown) [Example 2-Propyl] | – | – | % Protection [1, 3]: 75%
CC(=O)C1CCC2C3CCC4CC(OC(=O)c5cccnc5)CCC4(C)C3CCC12C (stereo not shown) [Example 3-Pyridyl] | – | – | % Protection ([1]; 60 mg/kg, IP, 20 hour, anti-metrazol): 50 (20 hour) %
CCCC(CCC)C(=O)OC1CCC2(C)C(CCC3C2CCC2(C)C(C(C)=O)CCC32)C1 (stereo not shown) [Example 4-Heptyl] | – | – | % Protection ([1]; 60 mg/kg, IP, 4 hour, anti-metrazol): 16 (4 hour) %
CC(=O)OC1CCC2(C)C(CCC3C2CCC2(C)C(C(C)=O)CCC32)C1 (stereo not shown) [Methyl] | – | – | % Protection [1, 3]: 25%
CC(=NCCO)[C@H]1CC[C@H]2[C@@H]3CC[C@H]4C[C@](C)(O)CC[C@]4(C)[C@H]3CC[C@]12C [N-(3α-hydroxy-3β-methyl-5α-pregnan-20-ylidine)ethanolamine] | 7.00 | 93 | –
CC(=O)C1CCC2C3CCC4CC(OC(=O)c5ccccc5)CCC4(C)C3CCC12C (stereo not shown) [Phenyl] | – | – | % Protection [1, 3]: 33%
CCCC(=O)O[C@@H]1CC[C@@]2(C)[C@@H](CC[C@@H]3[C@@H]2CC[C@]2(C)[C@@H](C(C)=O)CC[C@@H]32)C1 [Propyl] | – | – | % Protection [1, 3]: 75%
CC(C)CCC[C@@H](C)[C@H]1CC[C@H]2[C@@H]3CC=C4C[C@@H](O)CC[C@]4(C)[C@H]3CC[C@]12C [cholesterol, reference compound] | < 6.00 | I* | –
C[C@]12C[C@H](O)[C@H]3[C@@H](CCC4=CC(=O)CC[C@@]43C)[C@@H]1CC[C@@H]2C(=O)CO [corticosterone, reference compound] | < 6.00 | I* | –
CC(=O)[C@H]1CC[C@H]2[C@@H]3CCC4=CC(=O)CC[C@]4(C)[C@H]3CC[C@]12C [progesterone, reference compound] | < 6.00 | I* | –
